Experimental data: the PolyMetriX glass transition set
± gives the standard deviation of the reports.

`*CC(*)(C)C(=O)OCc1ccccc1` (repeat unit) [Poly(benzyl methacrylate)] gave a glass transition temperature of 54.00 ± 0.5 °C.
`*CC(*)(C)C(=O)OCc1cc(Cl)cc(Cl)c1` (repeat unit) gave a glass transition temperature of 30.0 °C.
Compound `*/C=C/c1cc(OCCCCCCCCCCCC)c(*)cc1OC` (repeat unit) has a glass transition temperature of 36.00 °C.
In the case of `*Oc1ccc(C(=O)Nc2cc(C(c3ccc(C)c(NC(=O)c4ccc(OC(=O)c5ccc(C(*)=O)cc5)cc4)c3)(C(F)(F)F)C(F)(F)F)ccc2C)cc1` (repeat unit), the glass transition temperature is reported as 213.00 °C.
Work on `*/C(C)=C(/*)CCC` (repeat unit) yielded a glass transition temperature of 200.00 °C.
`*c1ccc2c(c1)C(=O)N(c1cccc(S(=O)(=O)c3cccc(N4C(=O)c5ccc(C(*)(C(F)(F)F)C(F)(F)F)cc5C4=O)c3)c1)C2=O` (repeat unit) gave a glass transition temperature of 275.00 ± 5.7 °C.
Work on `*CCCCCCCCCCCCOc1c(OC)cc(/C=C/c2ccc(/C=C/c3cc(OC)c(O*)c(OC)c3)cc2)cc1OC` (repeat unit) yielded a glass transition temperature of 61.10 °C.
Compound `*C(=O)c1ccc2c(c1)C(=O)N(c1ccc(Sc3ccc(N4C(=O)c5ccc(*)cc5C4=O)cc3)cc1)C2=O` (repeat unit) has a glass transition temperature of 276.00 °C.
With `*CCOC(=O)c1ccc2ccc(C(=O)O*)cc2c1` (repeat unit) the glass transition temperature was 119.00 °C.
In the case of `*C(=O)c1cc(C(=O)c2ccc3c(c2)C(=O)N(c2ccc(Oc4ccc(S(=O)(=O)c5ccc(Oc6ccc(N7C(=O)c8ccc(*)cc8C7=O)cc6)cc5)cc4)cc2)C3=O)cc(-c2ccccc2)c1` (repeat unit), the glass transition temperature is reported as 256.50 °C.
For `*CC(*)(C)C(=O)OCCC1CC[N+](C)(CCCCCCOc2ccc(/N=N/c3ccc([N+](=O)[O-])cc3)cc2)CC1` (repeat unit), the glass transition temperature was 57.80 °C.
In the case of `*c1ccc(Oc2ccc(S(=O)(=O)c3ccc(Oc4ccc(-c5ncc(*)o5)cc4C(F)(F)F)cc3)cc2)c(C(F)(F)F)c1` (repeat unit), the glass transition temperature is reported as 210.00 °C.
In the case of `*CC(=O)C(*)c1ccc(C(C)(C)C)cc1` (repeat unit), the glass transition temperature is reported as 158.00 °C.
In the case of `*Oc1ccc(C(C)(C)c2ccc(C(C)(C)c3ccc(OC(*)=O)cc3)cc2)cc1` (repeat unit), the glass transition temperature is reported as 154.00 °C.
With `*CCCCCOc1ccc(-c2ccc(O*)c3ccccc23)c2ccccc12` (repeat unit) the glass transition temperature was 151.00 °C.
Compound `*C#Cc1cccc(C#C[SiH2]*)c1` (repeat unit) has a glass transition temperature of 72.00 °C.
`*c1ccc(Oc2ccc(C(C)(C)c3ccc(Oc4ccc(-c5nnc(*)o5)cc4)cc3)cc2)cc1` (repeat unit) gave a glass transition temperature of 180.00 °C.
Work on `*Oc1c(OC)cc(-c2cc(OC)c(OC(=O)c3cccc(C(*)=O)c3)c(OC)c2)cc1OC` (repeat unit) yielded a glass transition temperature of 252.00 °C.
`*CC(*)(C)C(=O)OCCOCCOCCOCCOc1ccc(/N=N/c2ccc(C#N)cc2)cc1` (repeat unit) gave a glass transition temperature of 20.00 °C.
Work on `*CC(*)OC(=O)c1ccc(C(C)C)cc1` (repeat unit) yielded a glass transition temperature of 67.70 °C.
In the case of `*Oc1ccc(Oc2ccc(OC(=O)c3cc(OCCCCC)cc(C(*)=O)c3)cc2)cc1` (repeat unit), the glass transition temperature is reported as 126.00 °C.
`*CCCCCCCCCCCN1C(=O)c2ccc(-c3ccc(-c4ccc5c(c4)C(=O)N(*)C5=O)cc3)cc2C1=O` (repeat unit) gave a glass transition temperature of 89.00 °C.
Compound `*/C=C(/*)c1ccccc1C(F)(F)F` (repeat unit) has a glass transition temperature of 130.00 °C.
`*Oc1ccc(-c2ccc(Oc3ccc(-c4ccc(-c5ccc(*)c(C(F)(F)F)c5)cc4)cc3C(F)(F)F)cc2)cc1` (repeat unit) showed a glass transition temperature of 203.50 °C.
In the case of `*CC#CC#CCOc1ccc(C(=O)OCCN(CCOC(=O)c2ccc(O*)cc2)c2ccc(/N=N/c3ccc([N+](=O)[O-])cc3)cc2)cc1` (repeat unit), the glass transition temperature is reported as 100.00 °C.
Work on `*CCC(=O)NCc1cc(C)c(CNC(=O)CCO*)cc1C` (repeat unit) yielded a glass transition temperature of 80.00 °C.
Work on `*c1ccc(-c2cc(C(C)(C)C)c(Oc3ccc(N4C(=O)c5ccc(-c6ccc7c(c6)C(=O)N(*)C7=O)cc5C4=O)cc3)c(C(C)(C)C)c2)cc1` (repeat unit) yielded a glass transition temperature of 381.50 °C.
Compound `*OC(C)C(=O)NC(C)C(*)=O` (repeat unit) has a glass transition temperature of 57.7 °C.
`*CCCCOc1ccc(/C=C2\CC/C(=C\c3ccc(OCCCCOP(=O)(O*)OCC)c(OC)c3)C2=O)cc1OC` (repeat unit) showed a glass transition temperature of 79.00 °C.
Work on `*c1ccc(Oc2ccc(C3(c4ccc(Oc5ccc(N6C(=O)c7ccc(Oc8ccc(C9(c%10ccc(Oc%11ccc%12c(c%11)C(=O)N(*)C%12=O)cc%10)CCC(C(C)(C)C)CC9)cc8)cc7C6=O)cc5)cc4)CC4CC3C3CCCC43)cc2)cc1` (repeat unit) yielded a glass transition temperature of 257.00 °C.
Work on `*Oc1ccccc1C(=O)OC(=O)c1ccccc1OC(=O)CCCCCC(*)=O` (repeat unit) yielded a glass transition temperature of 40.00 °C.
For `*CC(*)C(=O)OC(OCC)C(F)(F)F` (repeat unit), the glass transition temperature was 5.00 °C.
Work on `*Oc1ccc(S(=O)(=O)c2ccc(Oc3ccc(C(C)(C)c4ccc(*)cc4)cc3[N+](=O)[O-])cc2)cc1` (repeat unit) yielded a glass transition temperature of 190.00 °C.
For `*c1ccc(-c2ccc(NC(=O)c3cccc(C(=O)Nc4ccc(-c5ccc(N6C(=O)c7ccc(Oc8ccc9c(c8)C(=O)N(*)C9=O)cc7C6=O)cc5)cc4)c3)cc2)cc1` (repeat unit), the glass transition temperature was 233.00 °C.
In the case of `*c1cccc(Oc2cccc(Oc3cccc(N4C(=O)c5ccc(-c6cccc7c6C(=O)N(*)C7=O)cc5C4=O)c3)c2)c1` (repeat unit), the glass transition temperature is reported as 213.00 °C.
`*C1CC2CC1C(*)C2CCCC` (repeat unit) showed a glass transition temperature of 235.00 °C.
With `*Oc1ccc(Oc2ccc(C(=O)c3ccc(*)cc3)cc2)cc1-c1ccccc1` (repeat unit) the glass transition temperature was 157.00 °C.
Work on `*Oc1ccc(CC(NC(=O)CCc2ccc(OC(=O)CCCCCCC(*)=O)cc2)C(=O)OCCCCCCCCCCCC)cc1` (repeat unit) yielded a glass transition temperature of 15.00 °C.
Compound `*COC(=O)Nc1ccc(Cc2ccc(NC(=O)OCc3cocc3*)cc2)cc1` (repeat unit) has a glass transition temperature of 45.00 °C.
With `*OC(=O)C(CCSC)NC(=O)CCCCCCCCC(=O)NC(CCSC)C(=O)OC1COC2C(*)COC12` (repeat unit) the glass transition temperature was 61.00 °C.
In the case of `*/C=C(/*)C(CCC)[Si](C)(C)CCCCCC` (repeat unit), the glass transition temperature is reported as 40.00 °C.
Work on `*/C=C/c1ccc2c3ccc(*)cc3n(-c3ccc(OCCCCCCCCCC)c(OCCCCCCCCCC)c3)c2c1` (repeat unit) yielded a glass transition temperature of 95.00 °C.
Work on `*O[Si](C)(CCC(F)(F)F)CCC(F)(F)C(F)(F)CC[Si](*)(C)CCC(F)(F)F` (repeat unit) yielded a glass transition temperature of -27.00 °C.
`*Nc1ccc(NC(=O)CCCCCC(*)=O)cc1` (repeat unit) showed a glass transition temperature of 133.00 °C.
For `*CC(*)(CC(=O)OC1CCCCCC1)C(=O)OC1CCCCCC1` (repeat unit), the glass transition temperature was 105.00 °C.
`*Oc1ccc(CC(NC(=O)CCc2ccc(OC(=O)CCC(C)CC(*)=O)cc2)C(=O)OC)cc1` (repeat unit) gave a glass transition temperature of 53.00 °C.
`*CC(*)c1ccccc1COCCCC` (repeat unit) showed a glass transition temperature of 67.00 °C.
For `*Oc1ccc(NC(=O)c2cc(C(=O)Nc3ccc(Oc4ccc(C(c5ccc(*)cc5)(C(F)(F)F)C(F)(F)F)cc4)cc3)cc(C(C)(C)C)c2)cc1` (repeat unit), the glass transition temperature was 255.50 °C.
`*Oc1ccc(C(C)c2ccc(OC(*)=O)cc2)cc1` (repeat unit) gave a glass transition temperature of 130.00 °C.
